Measurements: patent publication US7439071B2, “Method of employing elevation of marinobufagenin in determining the presence of preeclampsia and related apparatus” (The Administrators of the Tulane Educational Fund, priority 2003, dated 2008)

Tested on: vessels from preeclamptic rats / normal pregnant rats
Assay: Perfusion of individual vessels dissected from rat models of preeclampsia and from normal pregnant rats with marinobufagenin
Description: It is elevated substantially more in preeclamptic rats.

C[C@]12CC[C@H](O)C[C@@]1(O)CC[C@@H]1[C@@H]2CC[C@]2(C)[C@@H](c3ccc(=O)oc3)C[C@H]3O[C@]132 [marinobufagenin]
constriction of perfused vessels (vessels from normal pregnant animals or rats perfused with marinobufagenin): do not constrict | constriction of perfused vessels as compared with the controlled circumstance (average) (vessels from preeclamptic rats perfused with marinobufagenin): about 36%
